What was measured:
Aβ1-40 = test: Measurement of Aβ1-40 in culture medium of 7W WT APP751 CHO cells by ELISA; format: cell-based, Chinese hamster; conditions: for Aβ1-40 (% of control): CHO cells that overexpress APP751, zero = below the detection limit of the assay; for activity at 5 µM: Cricetulus griseus, Table 1, 5 μM test compound, CHO cells stably transfected with human APP751, culture medium, ELISA, control DMSO, 0 = no detectable amount
Aβ1-42 = test: Measurement of Aβ1-42 in culture medium of 7W WT APP751 CHO cells by ELISA; format: cell-based, Chinese hamster; conditions: for Aβ1-42 (% of control): CHO cells that overexpress APP751, zero = below the detection limit of the assay; for activity at 5 µM: Cricetulus griseus, Table 1, 5 μM test compound, CHO cells stably transfected with human APP751, culture medium, ELISA, control DMSO, 0 = no detectable amount, read-out: Aβ1-42 (% of control)
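Note: 5 µM test compound but RI-coded compounds at 10 µM for 24 hours.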

Structure (SMILES): CC1=C(C(=O)Nc2ccccc2)C(c2cccs2)C(C#N)=C(SCC(=O)Nc2cccc(F)c2)N1 (stereo not shown) [RI_13]
- Aβ1-40 (% of control) (Aβ1-40): 53.8 % of control
- Aβ1-42 (% of control) (Aβ1-42): 41.3 % of control

Structure (SMILES): CC1=C(C(=O)Nc2ccccc2C)C(c2ccco2)C(C#N)=C(SCC(=O)Nc2cccc(Cl)c2C)N1 (stereo not shown) [ST051156, N-(3-chloro-2-methylphenyl)-2-{3-cyano-4-(2-furyl)-6-methyl-5-[N-(2-methylphenyl)carbamoyl](2-1,4-dihydropyridylthio)}acetamide]
- Aβ1-40 (% of control) (Aβ1-40): 86.64 % of control
- Aβ1-42 (% of control) (Aβ1-42): 68.02 % of control

Structure (SMILES): CC1=C(C(=O)Nc2ccccc2)C(c2ccsc2)C(C#N)=C(SCC(=O)Nc2ccc(C(C)C)cc2)N1 (stereo not shown) [RI_46]
- Aβ1-40 (% of control) (Aβ1-40): 74.4 % of control
- Aβ1-42 (% of control) (Aβ1-42): 70.2 % of control

Structure (SMILES): CCOC(=O)C1=C(C)NC2=C(C(=O)CCC2)C1c1ccc(N(C)C)cc1 (stereo not shown) [ST013066, ethyl 4-[4-(dimethylamino)phenyl]-2-methyl-5-oxo-1,4,6,7,8-pentahydroquinoline-3-carboxylate]
- activity at 5 µM (Aβ1-40): 68.4%
- activity at 5 µM (Aβ1-42): 96.7%

Structure (SMILES): CCOC(=O)C1=C(C)NC2=C(C(=O)CC(C)(C)C2)C1c1cc2c(cc1[NH+]([O-])O)OCO2 (stereo not shown) [ST013060, ethyl 2,7,7-trimethyl-4-(6-nitro(2H-benzo[d]1,3-dioxolan-5-yl))-5-oxo-1,4,6,7,8-pentahydroquinoline-3-carboxylate]
- activity at 5 µM (Aβ1-40): 32.7%
- activity at 5 µM (Aβ1-42): 99.4%

Structure (SMILES): CCCOCCOC(=O)C1=C(C)NC2=C(C(=O)CC(C)(C)C2)C1c1ccc(Cl)c(Cl)c1 (stereo not shown) [ST052446, 2-propoxyethyl 4-(3,4-dichlorophenyl)-2,7,7-trimethyl-5-oxo-1,4,6,7,8-pentahydroquinoline-3-carboxylate]
- activity at 5 µM (Aβ1-40): 58.1%
- activity at 5 µM (Aβ1-42): 45.2%

Structure (SMILES): CC1=C(C(=O)OC2CCCCC2)C(c2ccc(Br)cc2)C2=C(CCCC2=O)N1 (stereo not shown) [ST017170, cyclohexyl 4-(4-bromophenyl)-2-methyl-5-oxo-1,4,6,7,8-pentahydroquinoline-3-carboxylate]
- activity at 5 µM (Aβ1-40): 3.47%
- activity at 5 µM (Aβ1-42): 1.38%

Structure (SMILES): COCCOC(=O)C1=C(C)NC2=C(C(=O)CC(c3ccc(Cl)cc3)C2)C1c1ccc([N+](=O)[O-])cc1 (stereo not shown) [ST016971, 2-methoxyethyl 7-(4-chlorophenyl)-2-methyl-4-(4-nitrophenyl)-5-oxo-1,4,6,7,8-pentahydroquinoline-3-carboxylate]
- activity at 5 µM (Aβ1-40): 27.3%
- activity at 5 µM (Aβ1-42): 86.2%

Structure (SMILES): CCCOC(=O)C1=C(C)NC2=C(C(=O)CC(c3ccccc3)C2)C1c1ccc(Cl)cc1Cl (stereo not shown) [ST017293, propyl 4-(2,4-dichlorophenyl)-2-methyl-5-oxo-7-phenyl-1,4,6,7,8-pentahydroquinoline-3-carboxylate]
- activity at 5 µM (Aβ1-40): 57.7%
- activity at 5 µM (Aβ1-42): 95.2%

Structure (SMILES): CC1=C(C(N)=O)C(c2ccccc2)C(C#N)=C(SCC(=O)Nc2cccc(C)c2)N1 (stereo not shown) [RI_30]
- Aβ1-40 (% of control) (Aβ1-40): 94.9 % of control
- Aβ1-42 (% of control) (Aβ1-42): 48.2 % of control

Structure (SMILES): CCOC(=O)C1=CN(c2cc(C)ccc2C)C=C(C(=O)OCC)C1c1cc(OC)c(OC)c(OC)c1 [ST052491, ethyl 1-(2,5-dimethylphenyl)-5-(ethoxycarbonyl)-4-(3,4,5-trimethoxyphenyl)-1,4-dihydropyridine-3-carboxylate]
- Aβ1-40 (% of control) (Aβ1-40): 70.29 % of control
- Aβ1-42 (% of control) (Aβ1-42): 28.35 % of control

Structure (SMILES): CCc1ccc(C2C(C(=O)OCc3ccc(OC)cc3)=C(C)NC3=C2C(=O)CCC3)cc1 (stereo not shown) [ST016983, (4-methoxyphenyl)methyl 4-(4-ethylphenyl)-2-methyl-5-oxo-1,4,6,7,8-pentahydroquinoline-3-carboxylate]
- activity at 5 µM (Aβ1-40): 51.6%
- activity at 5 µM (Aβ1-42): 72.6%

Structure (SMILES): CC1=C(C(=O)OCc2ccccc2)C(c2ccccc2C(F)(F)F)C2=C(CC(C)(C)CC2=O)N1 (stereo not shown) [ST014881, phenylmethyl 2,7,7-trimethyl-5-oxo-4-[2-(trifluoromethyl)phenyl]-1,4,6,7,8-pentahydroquinoline-3-carboxylate]
- activity at 5 µM (Aβ1-40): 0%
- activity at 5 µM (Aβ1-42): 49.9%

Structure (SMILES): CC1=C(C(=O)Nc2ccccc2)C(c2cccs2)C(C#N)=C(SCC(=O)Nc2ccc(C(C)C)cc2)N1 (stereo not shown) [RI_47]
- Aβ1-40 (% of control) (Aβ1-40): 30.5 % of control
- Aβ1-42 (% of control) (Aβ1-42): 28.1 % of control
